Experimental findings from patent US9453026B2, “ACC inhibitors and uses thereof” (Gilead Apollo, Inc., priority 2011, dated 2016) are described below.

The structures appear in SMILES notation. Bounds are passed on as bounds.

Assay [1] addresses ACC2 (Homo sapiens, UniProt O00763). Description: In vitro ACC2 inhibition assay (ADP-Glo). The following applies: read-out: ACC2. Type of assay: biochemical. Put shortly: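 Enzyme (human ACC1 or ACC2) and compound, serially diluted 1:3 over 11 points from a 600 uM DMSO stock, were preincubated 15 min before substrate addition.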
Assay [2] deals with ACC1 (Homo sapiens, UniProt Q13085). Description: In vitro ACC1 inhibition assay (ADP-Glo). Type of assay: biochemical. The conditions noted are these: read-out: ACC1. As to the method:
An exemplary procedure for the in vitro ACC inhibition assay, which can be used to determine the inhibitory action of compounds of the invention toward either ACC1 or ACC2, follows. The ADP-Glo™ Kinase Assay kit from Promega was used. The ADP-Glo™ Kinase Assay is a luminescent ADP detection assay to measure enzymatic activity by quantifying the amount of ADP produced during an enzyme reaction. The assay is performed in two steps; first, after the enzyme reaction, an equal volume of ADP-Glo™ Reagent is added to terminate the reaction and deplete the remaining ATP. Second, the Kinase Detection Reagent is added to simultaneously convert ADP to ATP and allow the newly synthesized ATP to be measured using a luciferase/luciferin reaction. Luminescence can be correlated to ADP concentrations by using an ATP-to-ADP conversion curve. The detailed procedure is as follows. 50 μL of the compound being tested (600 uM in DMSO) was added to a 384-well dilution plate. The compound was diluted 1:3 in succession in DMSO for each row for 11 wells. 0.5 μL ACC2 working solution was added to 384-well white Optiplate assay plate. 0.5 μL diluted compound solution in each column from step 2 to assay plate, each row containing 2 replicates. […] The plates were incubated at room temperature for 15 minutes. 5 μL substrate working solution was added to each well to initiate reaction. […] Plates were incubated at room temperature for 60 minutes. 10 μL ADP glo reagent was added. Plates were incubated at room temperature for 40 minutes. 20 μL kinase detection reagent was added.
Data for each concentration, as well as the positive and negative controls were averaged, and the standard deviation calculated. Percent inhibition was calculated by the formula: 100× (average negative control−compound)/(average negative control−average positive control). The IC50 for each compound was calculated by fitting the data with a non-linear regression equation: Y=Bottom+(Top-Bottom)/(1+10^((Log IC50−X)*HillSlope)), where X is the log of compound concentration and Y is percent inhibition.
The compound numbers correspond to the compound numbers in Table 1.

ACC2, sequence (O00763 whole entry, species assumed): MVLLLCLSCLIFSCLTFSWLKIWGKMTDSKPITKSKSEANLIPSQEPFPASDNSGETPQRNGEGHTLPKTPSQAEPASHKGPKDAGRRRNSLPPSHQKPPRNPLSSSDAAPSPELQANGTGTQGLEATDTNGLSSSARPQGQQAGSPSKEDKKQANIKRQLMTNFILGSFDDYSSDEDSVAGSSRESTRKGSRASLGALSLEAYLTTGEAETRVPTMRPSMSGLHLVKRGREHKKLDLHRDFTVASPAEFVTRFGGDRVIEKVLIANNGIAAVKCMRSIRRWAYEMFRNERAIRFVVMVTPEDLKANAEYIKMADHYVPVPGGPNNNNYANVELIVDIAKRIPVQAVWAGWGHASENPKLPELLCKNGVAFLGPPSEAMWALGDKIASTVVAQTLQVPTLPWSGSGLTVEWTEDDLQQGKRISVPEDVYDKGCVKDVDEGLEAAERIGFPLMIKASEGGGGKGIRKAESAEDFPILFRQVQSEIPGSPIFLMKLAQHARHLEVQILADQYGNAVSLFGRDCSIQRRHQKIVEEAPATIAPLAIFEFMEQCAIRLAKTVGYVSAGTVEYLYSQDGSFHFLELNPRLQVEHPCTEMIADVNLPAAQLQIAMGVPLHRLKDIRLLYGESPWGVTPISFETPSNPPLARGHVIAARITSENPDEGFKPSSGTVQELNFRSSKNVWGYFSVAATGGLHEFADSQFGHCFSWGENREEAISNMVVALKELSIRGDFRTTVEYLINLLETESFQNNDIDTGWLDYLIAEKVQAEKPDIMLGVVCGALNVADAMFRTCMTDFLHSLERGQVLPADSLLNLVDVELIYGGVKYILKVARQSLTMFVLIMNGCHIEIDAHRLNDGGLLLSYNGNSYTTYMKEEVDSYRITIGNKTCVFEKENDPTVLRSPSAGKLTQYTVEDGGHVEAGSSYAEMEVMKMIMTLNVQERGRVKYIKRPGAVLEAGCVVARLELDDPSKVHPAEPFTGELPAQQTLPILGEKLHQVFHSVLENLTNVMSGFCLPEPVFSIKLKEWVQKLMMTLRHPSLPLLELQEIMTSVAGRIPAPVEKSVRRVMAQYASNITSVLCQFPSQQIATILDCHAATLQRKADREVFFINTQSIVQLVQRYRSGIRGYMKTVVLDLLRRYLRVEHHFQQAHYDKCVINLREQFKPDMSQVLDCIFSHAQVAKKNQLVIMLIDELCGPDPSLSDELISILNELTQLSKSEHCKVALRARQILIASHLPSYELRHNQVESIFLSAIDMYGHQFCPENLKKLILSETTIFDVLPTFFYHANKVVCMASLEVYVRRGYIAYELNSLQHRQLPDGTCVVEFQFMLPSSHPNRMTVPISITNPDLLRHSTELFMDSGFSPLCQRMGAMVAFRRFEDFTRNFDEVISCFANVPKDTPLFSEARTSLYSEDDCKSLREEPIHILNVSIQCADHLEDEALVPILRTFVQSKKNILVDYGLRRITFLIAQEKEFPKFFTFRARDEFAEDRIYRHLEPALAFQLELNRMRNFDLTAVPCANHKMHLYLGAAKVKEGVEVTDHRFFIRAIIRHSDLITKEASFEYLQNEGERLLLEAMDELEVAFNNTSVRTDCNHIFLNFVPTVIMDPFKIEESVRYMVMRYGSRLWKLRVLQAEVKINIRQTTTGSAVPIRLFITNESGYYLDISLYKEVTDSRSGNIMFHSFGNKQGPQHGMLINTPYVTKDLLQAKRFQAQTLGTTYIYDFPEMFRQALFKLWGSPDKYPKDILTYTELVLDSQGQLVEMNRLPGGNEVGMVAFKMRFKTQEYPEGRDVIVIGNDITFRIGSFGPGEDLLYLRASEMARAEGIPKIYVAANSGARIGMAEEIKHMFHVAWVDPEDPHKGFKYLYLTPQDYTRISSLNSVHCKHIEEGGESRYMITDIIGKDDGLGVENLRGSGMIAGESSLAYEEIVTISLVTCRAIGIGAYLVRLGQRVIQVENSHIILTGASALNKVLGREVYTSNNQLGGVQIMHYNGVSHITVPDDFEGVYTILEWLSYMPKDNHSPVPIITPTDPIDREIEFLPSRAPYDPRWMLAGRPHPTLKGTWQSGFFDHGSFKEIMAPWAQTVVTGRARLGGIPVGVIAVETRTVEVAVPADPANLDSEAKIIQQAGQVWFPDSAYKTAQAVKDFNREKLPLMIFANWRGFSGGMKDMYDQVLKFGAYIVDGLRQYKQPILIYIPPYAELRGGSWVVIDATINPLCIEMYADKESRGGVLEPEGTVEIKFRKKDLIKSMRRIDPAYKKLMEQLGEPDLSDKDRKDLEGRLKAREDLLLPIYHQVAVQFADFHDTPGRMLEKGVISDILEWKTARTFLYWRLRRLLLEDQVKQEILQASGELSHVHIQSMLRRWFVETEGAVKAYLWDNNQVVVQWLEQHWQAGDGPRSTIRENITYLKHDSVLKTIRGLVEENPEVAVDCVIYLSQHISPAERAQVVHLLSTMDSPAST

In the case of `CCOC(=O)c1sc2c(c1C)c(=O)n(CC(=O)O)c(=O)n2CC(OC(C)C)c1ccccc1` (stereo in doubt) [I-96, (S)-2-(6-(ethoxycarbonyl)-1-(2-isopropoxy-2-phenylethyl)-5-methyl-2,4-dioxo-1,2-dihydrothieno[2,3-d]pyrimidin-3(4H)-yl)acetic acid], the values for the IC50 in assay [1] and in assay [2] were 5 to 20 µM and less than 0.1 µM, respectively.
With `CCOC(=O)c1sc2c(c1C)c(=O)n(C(C)(C)C(=O)O)c(=O)n2C[C@H](OC(C)CC)c1ccccc1` (stereo in doubt) [I-131, 2-[1-[(2R)-2-[(2R)-butan-2-yloxy]-2-phenylethyl]-6-(ethoxycarbonyl)-5-methyl-2,4-dioxo-1H,2H,3H,4H-thieno[2,3-d]pyrimidin-3-yl]-2-methylpropanoic acid], the IC50 in assay [1] and in assay [2] was less than 1 µM throughout.
`Cc1c(-c2ncco2)sc2c1c(=O)n(C(C)(C)C(=O)O)c(=O)n2CC(Oc1ccccc1)c1ccccc1` (stereo in doubt) [I-143, 2-methyl-2-[5-methyl-6-(1,3-oxazol-2-yl)-2,4-dioxo-1-[(2S)-2-phenoxy-2-phenylethyl]-1H,2H,3H,4H-thieno[2,3-d]pyrimidin-3-yl]propanoic acid]: the IC50 in assay [1] and in assay [2] was less than 1 µM each time.
As to `CCOC(=O)c1sc2c(c1C)c(=O)n(CCO)c(=O)n2CCc1ccccc1` [I-1], the values for the IC50 in assay [1] and in assay [2] were 5 to 20 µM and less than 5 µM, respectively.
For `CCOC(=O)c1sc2c(c1C)c(=O)n(CC(=O)O)c(=O)n2CCc1ccccc1` [I-13] the same measures were less than 5 µM and less than 5 µM.
The corresponding values for `CCOC(=O)c1sc2c(c1C)c(=O)n(CC(N)=O)c(=O)n2CCc1ccccc1` [I-14] are less than 5 µM and less than 5 µM.
For `CCOC(=O)c1sc2c(c1C)c(=O)n(CCCO)c(=O)n2CCc1ccccc1` [I-19, ethyl 3-(3-hydroxypropyl)-5-methyl-2,4-dioxo-1-(2-phenylethyl)-1H,2H,3H,4H-thieno[2,3-d]pyrimidine-6-carboxylate] the same measures were 5 to 20 µM and less than 5 µM.
For `CCOC(=O)c1sc2c(c1C)c(=O)n(CCO)c(=O)n2CCc1ccccc1Cl` [I-20, ethyl 1-[2-(2-chlorophenyl)ethyl]-3-(2-hydroxyethyl)-5-methyl-2,4-dioxo-1H,2H,3H,4H-thieno[2,3-d]pyrimidine-6-carboxylate], the IC50 in assay [1] is less than 5 µM; in assay [2], 5 to 20 µM.
The corresponding values for `CCOC(=O)c1sc2c(c1C)c(=O)n(CC(=O)O)c(=O)n2CCc1ccccc1Cl` [I-31, 2-[1-[2-(2-chlorophenyl)ethyl]-6-(ethoxycarbonyl)-5-methyl-2,4-dioxo-1H,2H,3H,4H-thieno[2,3-d]pyrimidin-3-yl]acetic acid] are less than 5 µM and less than 5 µM.
For `CCOC(=O)c1sc2c(c1C)c(=O)n(CC(=O)O)c(=O)n2CCc1ccccc1F` [I-32, 2-[6-(ethoxycarbonyl)-1-[2-(2-fluorophenyl)ethyl]-5-methyl-2,4-dioxo-1H,2H,3H,4H-thieno[2,3-d]pyrimidin-3-yl]acetic acid] the same measures were less than 5 µM and less than 5 µM.
For `CCOC(=O)c1sc2c(c1C)c(=O)n(CC(=O)O)c(=O)n2CCc1c(F)cccc1F` [I-33, 2-[1-[2-(2,6-difluorophenyl)ethyl]-6-(ethoxycarbonyl)-5-methyl-2,4-dioxo-1H,2H,3H,4H-thieno[2,3-d]pyrimidin-3-yl]acetic acid] the same measures were 5 to 20 µM and 5 to 20 µM.
Regarding `CCOC(=O)c1sc2c(c1C)c(=O)n(Cc1nnn[nH]1)c(=O)n2CCc1ccccc1` [I-45, ethyl 5-methyl-2,4-dioxo-1-(2-phenylethyl)-3-(1H-1,2,3,4-tetrazol-5-ylmethyl)-1H,2H,3H,4H-thieno[2,3-d]pyrimidine-6-carboxylate], the IC50 in assay [1] and in assay [2] was less than 5 µM each time.
With `CCOC(=O)c1sc2c(c1C)c(=O)n(CCC(=O)O)c(=O)n2CCc1ccccc1` [I-46, 3-[6-(ethoxycarbonyl)-5-methyl-2,4-dioxo-1-(2-phenylethyl)-1H,2H,3H,4H-thieno[2,3-d]pyrimidin-3-yl]propanoic acid], the IC50 in assay [1] and in assay [2] was less than 5 µM in each case.
With `CCOC(=O)c1sc2c(c1C)c(=O)n(CCS(C)(=O)=O)c(=O)n2CCc1ccccc1` [I-52], the IC50 in assay [1] and in assay [2] was greater than 50 µM in each case.
`CCOC(=O)c1sc2c(c1C)c(=O)n(CCC(N)=O)c(=O)n2CCc1ccccc1` [I-55, ethyl 3-(2-carbamoylethyl)-5-methyl-2,4-dioxo-1-(2-phenylethyl)-1H,2H,3H,4H-thieno[2,3-d]pyrimidine-6-carboxylate]: the IC50 in assay [1] and in assay [2] was less than 5 µM in each case.
`CCOC(=O)c1sc2c(c1C)c(=O)n(CC(=O)O)c(=O)n2CC(O)c1ccccc1` (stereo not shown) [I-60, 2-[6-(ethoxycarbonyl)-1-(2-hydroxy-2-phenylethyl)-5-methyl-2,4-dioxo-1H,2H,3H,4H-thieno[2,3-d]pyrimidin-3-yl]acetic acid]: the IC50 in assay [1] and in assay [2] was less than 5 µM each time.
As to `CCOC(=O)c1sc2c(c1C)c(=O)n(CCc1nnn[nH]1)c(=O)n2CCc1ccccc1` [I-61], the IC50 in assay [1] and in assay [2] was less than 5 µM throughout.
Consider `CCOC(=O)c1sc2c(c1C)c(=O)n(C(C)(C)C(=O)O)c(=O)n2CCc1ccccc1` [I-70, 2-[6-(ethoxycarbonyl)-5-methyl-2,4-dioxo-1-(2-phenylethyl)-1H,2H,3H,4H-thieno[2,3-d]pyrimidin-3-yl]-2-methylpropanoic acid], for which the IC50 in assay [1] and in assay [2] was less than 1 µM throughout.
As to `COc1ccccc1[C@H](Cn1c(=O)n(C(C)(C)C(=O)O)c(=O)c2c(C)c(-c3ncco3)sc21)OCC1COC1` [I-269, (R)-2-(1-(2-(2-methoxyphenyl)-2-(oxetan-3-ylmethoxy)ethyl)-5-methyl-6-(oxazol-2-yl)-2,4-dioxo-1,2-dihydrothieno[2,3-d]pyrimidin-3(4H)-yl)-2-methylpropanoic acid], the IC50 in assay [2] is less than 5 µM.
Consider `COc1cc(Br)ccc1[C@H](Cn1c(=O)n(C(C)(C)C(=O)O)c(=O)c2c(C)c(-c3ncco3)sc21)OC1CCOCC1` [I-270, 2-[1-[(2R)-2-(4-bromo-2-methoxyphenyl)-2-(oxan-4-yloxy)ethyl]-5-methyl-6-(1,3-oxazol-2-yl)-2,4-dioxo-1H,2H,3H,4H-thieno[2,3-d]pyrimidin-3-yl]-2-methylpropanoic acid], for which the IC50 in assay [2] was less than 5 µM.
Same read-out and setting: with `Cc1c(-c2ncco2)sc2c1c(=O)n(C(C)(C)C(=O)O)c(=O)n2C[C@H](OC1CCOCC1)c1ccccc1O` [I-273, 2-[1-[(2R)-2-(2-hydroxyphenyl)-2-(oxan-4-yloxy)ethyl]-5-methyl-6-(1,3-oxazol-2-yl)-2,4-dioxo-1H,2H,3H,4H-thieno[2,3-d]pyrimidin-3-yl]-2-methylpropanoic acid] the figure was less than 0.1 µM.
Still for that read-out and setting: for `COc1ccccc1[C@H](Cn1c(=O)n(C(C)(C)C(=O)N2CCC2)c(=O)c2c(C)c(-c3ncco3)sc21)OCC1CCOCC1` [I-275, 3-[1-(azetidin-1-yl)-2-methyl-1-oxopropan-2-yl]-1-[(2R)-2-(2-methoxyphenyl)-2-(oxan-4-ylmethoxy)ethyl]-5-methy-6-(1,3-oxazol-2-yl)-1H,2H,3H,4H-thieno[2,3-d]pyrimidine-2,4-dione] the value was less than 0.1 µM.
On to `COc1ccccc1[C@H](Cn1c(=O)n(C(C)(C)C(=O)O)c(=O)c2c(C)c(-c3ncco3)sc21)OC1CCC(=O)CC1` [I-276, (R)-2-(1-(2-(2-methoxyphenyl)-2-((4-oxocyclohexyl)oxy)ethyl)-5-methyl-6-(oxazol-2-yl)-2,4-dioxo-1,2-dihydrotheno[2,3-d]pyrimidin-3(4H)-yl)-2-methylpropanoic acid], for which the IC50 in assay [2] is less than 0.1 µM.
The same measure, in the same setting: for `Cc1c(-c2ncco2)sc2c1c(=O)n(C(C)(C)C(N)=O)c(=O)n2C[C@H](OC1CCOCC1)c1ccccc1O` [I-283, 2-[1-[(2R)-2-(2-hydroxyphenyl)-2-(oxan-4-yloxy)ethyl]-5-methyl-6-(1,3-oxazol-2-yl)-2,4-dioxo-1H,2H,3H,4H-thieno[2,3-d]pyrimidin-3-yl]-2-methylpropanamide] the value was less than 0.1 µM; for `Cc1c(-c2ncco2)sc2c1c(=O)n(C(C)(C)C(=O)N1CCC1)c(=O)n2C[C@H](OC1CCOCC1)c1ccccc1O` [I-284, 3-[1-(azetidin-1-yl)-2-methyl-1-oxopropan-2-yl]-1-[(2R)-2-(2-hydroxyphenyl)-2-(oxan-4-yloxy)ethyl]-5-methyl-6-(1,3-oxazol-2-yl)-1H,2H,3H,4H-thieno[2,3-d]pyrimidine-2,4-dione], less than 0.1 µM.
